Patent US8901111B2, “Aryl-substituted heterocyclic urea modulators of fatty acid amide hydrolase” (Janssen Pharmaceutica NV, priority 2009, dated 2014)

How the values were obtained:
rat FAAH = target: T1, rat FAAH (Rattus norvegicus, UniProt P97612); assay: Assay Method 2: FAAH assay, 3H-anandamide hydrolysis in homogenate of cells transfected with rat FAAH; assay type: biochemical; details: cell homogenate, 3H-AEA 80 nM, 1 h at rt, average of results
T1 construct: expressed in transfected cells; crude homogenate
T1 sequence (P97612 1-579): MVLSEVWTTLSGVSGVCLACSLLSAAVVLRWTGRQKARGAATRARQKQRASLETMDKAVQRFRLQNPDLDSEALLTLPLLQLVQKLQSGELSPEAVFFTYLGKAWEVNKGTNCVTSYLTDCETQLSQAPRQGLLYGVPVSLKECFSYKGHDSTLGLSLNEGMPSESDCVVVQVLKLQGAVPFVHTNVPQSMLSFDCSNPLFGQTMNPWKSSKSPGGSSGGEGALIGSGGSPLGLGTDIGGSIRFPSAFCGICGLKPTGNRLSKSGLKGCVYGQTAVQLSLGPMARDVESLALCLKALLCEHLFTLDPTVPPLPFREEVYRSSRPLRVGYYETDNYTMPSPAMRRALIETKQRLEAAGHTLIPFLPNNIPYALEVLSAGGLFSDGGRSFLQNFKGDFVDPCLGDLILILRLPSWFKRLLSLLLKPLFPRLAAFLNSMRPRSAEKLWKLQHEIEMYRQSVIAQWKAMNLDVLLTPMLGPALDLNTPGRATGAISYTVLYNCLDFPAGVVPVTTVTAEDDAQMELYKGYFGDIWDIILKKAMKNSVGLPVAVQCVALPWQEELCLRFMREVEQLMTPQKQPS
Experimental: A. Transfection of Cells with Rat FAAH
(§1) A 10-cm tissue culture dish with a confluent monolayer of SK-N-MC cells was split 2 days (d) prior to transfection. Using sterile technique, the media was removed and the cells were detached from the dish by the addition of trypsin. One fifth of the cells were then placed onto a new 10-cm dish. Cells were grown in a 37° C. incubator with 5% CO2 in Minimal Essential Media Eagle with 10% Fetal Bovine Serum. After 2 d, cells were approximately 80% confluent. These cells were removed from the dish with trypsin and pelleted in a clinical centrifuge. The pellet was re-suspended in 400 μL complete media and transferred to an electroporation cuvette with a 0.4 cm gap between the electrodes. Supercoiled rat FAAH cDNA (1 μg) was added to the cells and mixed. The voltage for the electroporation was set at 0.25 kV, and the capacitance was set at 960 μF. After electroporation, the cells were diluted into complete media (10 mL) and plated onto four 10-cm dishes. Because of the variability in the efficiency of electroporation, four different concentrations of cells were plated. The ratios used were 1:20, 1:10, and 1:5, with the remainder of the cells being added to the fourth dish. The cells were allowed to recover for 24 h before adding the selection media (complete media with 600 μg/mL G418). After 10 d, dishes were analyzed for surviving colonies of cells. Dishes with well-isolated colonies were used. Cells from individual colonies were isolated and tested.
(§2) T84 frozen cell pellets or transfected SK-N-MC cells (contents of 1×15 cm culture dishes) were homogenized in 50 mL of FAAH assay buffer (125 mM Tris, 1 mM EDTA, 0.2% Glycerol, 0.02% Triton X-100, 0.4 mM Hepes, pH 9). The assay mixture consisted of 50 μL of the cell homogenate, 10 μL of the test compound, and 40 μL of anandamide [1-^3H-ethanolamine] (^3H-AEA, Perkin-Elmer, 10.3 Ci/mmol), which was added last, for a final tracer concentration of 80 nM. The reaction mixture was incubated at rt for 1 h. During the incubation, 96-well Multiscreen filter plates (catalog number MAFCNOB50; Millipore, Bedford, Mass., USA) were loaded with 25 μL of activated charcoal (Multiscreen column loader, catalog number MACL09625, Millipore) and washed once with 100 μL of MeOH. Also during the incubation, 96-well DYNEX MicroLite plates (catalog number NL510410) were loaded with 100 μL of MicroScint40 (catalog number 6013641, Packard Bioscience, Meriden, Conn., USA). After the 1 h incubation, 60 μL of the reaction mixture were transferred to the charcoal plates, which were then assembled on top of the DYNEX plates using Centrifuge Alignment Frames (catalog number MACF09604, Millipore). The unbound labeled ethanolamine was centrifuged through to the bottom plate (5 min at 2000 rpm), which was preloaded with the scintillant, as described above. The plates were sealed and left at rt for 1 h before counting on a Hewlett Packard TopCount.
(§3) Results for compounds tested in these assays are summarized in Table 1, as an average of results obtained. Compounds were tested in the free base or trifluoroacetic acid salt form. Compounds tested in the trifluoroacetic acid salt form are indicated as such by a “*” designation after the example number. Where activity is shown as greater than (>) a particular value, the value is the solubility limit of the compound in the assay medium or the highest concentration tested in the assay.

FAAH = target: T2, FAAH (Homo sapiens, UniProt O00519); assay: Assay Method 1: FAAH assay, 3H-anandamide hydrolysis in homogenate of cells transfected with human FAAH; assay type: biochemical; design: expressed in transfected cells; crude homogenate (T84 cell pellets named as alternative); details: cell homogenate, 3H-AEA 80 nM, 1 h at rt, average of results
T2 sequence (O00519 1-579): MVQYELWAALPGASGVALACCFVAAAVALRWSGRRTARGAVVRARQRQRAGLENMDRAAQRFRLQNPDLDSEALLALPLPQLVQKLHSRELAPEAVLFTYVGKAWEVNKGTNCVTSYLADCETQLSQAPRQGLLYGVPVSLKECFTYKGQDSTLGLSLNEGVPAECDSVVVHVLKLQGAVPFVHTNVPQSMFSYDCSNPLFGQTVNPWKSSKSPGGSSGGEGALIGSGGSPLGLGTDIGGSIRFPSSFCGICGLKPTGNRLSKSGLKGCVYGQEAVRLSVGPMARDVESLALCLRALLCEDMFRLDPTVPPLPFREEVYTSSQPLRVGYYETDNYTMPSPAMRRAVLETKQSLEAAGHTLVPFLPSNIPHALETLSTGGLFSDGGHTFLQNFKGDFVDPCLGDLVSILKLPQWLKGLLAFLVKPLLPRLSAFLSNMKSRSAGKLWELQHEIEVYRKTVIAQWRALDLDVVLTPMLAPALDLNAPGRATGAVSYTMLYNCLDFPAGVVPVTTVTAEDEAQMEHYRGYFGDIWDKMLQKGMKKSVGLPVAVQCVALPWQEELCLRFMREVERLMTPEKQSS
Experimental: A. Transfection of Cells with Human FAAH
as §1, with “Supercoiled human” for “Supercoiled rat”, “[…]” for “960 μF.”
as §2, §3

| Structure (SMILES) | IC50 (rat FAAH) [nM] | IC50 (FAAH) [nM] |
| --- | --- | --- |
| O=C(Nc1cccnc1)N1CC(CCOc2ccc3ccccc3n2)C1 [Example 36, 3-[2-(Quinolin-2-yloxy)-ethyl]-azetidine-1-carboxylic acid pyridin-3-ylamide] | 430 | 200 |
| O=C(Nc1cnccc1Cl)N1CC[C@H](COc2cccc(Oc3ccc(Cl)cc3)c2)C1 [Example 55, (3S)-3-[3-(4-Chloro-phenoxy)-phenoxymethyl]-pyrrolidine-1-carboxylic acid (4-chloro-pyridin-3-yl)-amide] | 6 | 16 |
| CS(=O)(=O)c1ccc(Oc2cccc(OCC3CCN(C(=O)Nc4cccnc4)C3)c2)cc1 (stereo not drawn) [Example 52, 3-({3-[4-(Methylsulfonyl)phenoxy]phenoxy}methyl)-N-pyridin-3-ylpyrrolidine-1-carboxamide] | 1000 | 100 |
| O=C(Nc1cccnc1)N1CC(COc2ccc3ccccc3c2)C1 [Example 20, 3-(Naphthalen-2-yloxymethyl)-azetidine-1-carboxylic acid pyridin-3-ylamide] | 1600 | 1000 |
| O=C(Nc1cnc2cccnn12)N1CC(CCOc2cccc(Oc3ccc(Cl)cc3)c2)C1 [Example 1, 3-{2-[3-(4-Chloro-phenoxy)-phenoxy]-ethyl}-azetidine-1-carboxylic acid imidazo[1,2-b]pyridazin-3-ylamide] | 4 | 5 |
| O=C(Nc1cccnc1)N1CCC(CCc2cccc(Oc3ccc(F)cc3)c2)C1 (stereo not drawn) [Example 79, 3-{2-[3-(4-Fluoro-phenoxy)-phenyl]-ethyl}-pyrrolidine-1-carboxylic acid pyridin-3-ylamide] | 48 | 58 |
| O=C(Nc1cccnc1)N1CC(COc2cccc(OCc3ccccc3)c2)C1 [Example 23, 3-(3-Benzyloxy-phenoxymethyl)-azetidine-1-carboxylic acid pyridin-3-ylamide] | 940 | 300 |
| O=C(Nc1cncc2ccccc12)N1CC(CCOc2cccc(Oc3ccc(Cl)cc3)c2)C1 [Example 38, 3-{2-[3-(4-Chloro-phenoxy)-phenoxy]-ethyl}-azetidine-1-carboxylic acid isoquinolin-4-ylamide] | 5 | 27 |
| O=C(Nc1cnccc1Cl)N1CCC(CCOc2cccc(OC(F)(F)F)c2)C1 (stereo not drawn) [Example 61, 3-[2-(3-Trifluoromethoxy-phenoxy)-ethyl]-pyrrolidine-1-carboxylic acid (4-chloro-pyridin-3-yl)-amide] | 1600 | 1600 |
| O=C(Nc1cccnc1)N1CCC(CCOc2ccc(OC(F)(F)F)cc2)C1 (stereo not drawn) [Example 60, 3-[2-(4-Trifluoromethoxy-phenoxy)-ethyl]-pyrrolidine-1-carboxylic acid pyridin-3-ylamide] | > 10000 | > 10000 |
| O=C(Nc1cnccc1Cl)N1CC(CCOCc2ccc(Cl)cc2)C1 [Example 65, 3-[2-(4-Chloro-benzyloxy)-ethyl]-azetidine-1-carboxylic acid (4-chloro-pyridin-3-yl)-amide] | 739 | 275 |
| O=C(Nc1cccnc1)N1CC(CCOc2ccc(Cl)c(C(F)(F)F)c2)C1 [Example 45, 3-[2-(4-Chloro-3-trifluoromethyl-phenoxy)-ethyl]-azetidine-1-carboxylic acid pyridin-3-ylamide] | 43 | 700 |
| O=C(Nc1cccnc1)N1CC(COc2cccc(Oc3ccccc3)c2)C1 [Example 17, 3-(3-Phenoxy-phenoxymethyl)-azetidine-1-carboxylic acid pyridin-3-ylamide] | 340 | 170 |
| O=C(Nc1cnccc1Cl)N1CC(CCOCc2ccc(Cl)c(Cl)c2)C1 [Example 67, 3-[2-(3,4-Dichloro-benzyloxy)-ethyl]-azetidine-1-carboxylic acid (4-chloro-pyridin-3-yl)-amide] | 84 | 39 |
| O=C(Nc1cccc2nccn12)N1CCC(Cc2cccc(Oc3ccc(F)cc3)c2)C1 (stereo not drawn) [Example 76, 3-[3-(4-Fluoro-phenoxy)-benzyl]-pyrrolidine-1-carboxylic acid imidazo[1,2-a]pyridin-5-ylamide] | 70 | 400 |
| O=C(Nc1cccnc1)N1CC(CCOc2ccc(Cl)c(Cl)c2)C1 [Example 34, 3-[2-(3,4-Dichloro-phenoxy)-ethyl]-azetidine-1-carboxylic acid pyridin-3-ylamide] | 54 | 30 |
| O=C(Nc1cnccc1Cl)N1CCC(CCOc2ccccc2)C1 (stereo not drawn) [Example 57, 3-(2-Phenoxy-ethyl)-pyrrolidine-1-carboxylic acid (4-chloropyridin-3-yl)-amide] | > 10000 | 3000 |
| O=C(Nc1cccnc1)N1CC(CCOc2cccc(C(F)(F)F)c2)C1 [Example 46, 3-[2-(3-Trifluoromethyl-phenoxy)-ethyl]-azetidine-1-carboxylic acid pyridin-3-ylamide] | 615 | 1600 |
